These results are taken from patent publication US7851493B2, “Phenyl-1,2,4-oxadiazolone derivatives with phenyl group, processes for their preparation and their use as pharmaceuticals” (Sanofi-Aventis, priority 2005, dated 2010).

One experiment concerns the target T1, human PPARdelta (Homo sapiens, UniProt Q03181).
T1 construct: amino acids S139-Y441; expressed in transfected cells; plasmid pcDNA3
T1 sequence (Q03181 139-441): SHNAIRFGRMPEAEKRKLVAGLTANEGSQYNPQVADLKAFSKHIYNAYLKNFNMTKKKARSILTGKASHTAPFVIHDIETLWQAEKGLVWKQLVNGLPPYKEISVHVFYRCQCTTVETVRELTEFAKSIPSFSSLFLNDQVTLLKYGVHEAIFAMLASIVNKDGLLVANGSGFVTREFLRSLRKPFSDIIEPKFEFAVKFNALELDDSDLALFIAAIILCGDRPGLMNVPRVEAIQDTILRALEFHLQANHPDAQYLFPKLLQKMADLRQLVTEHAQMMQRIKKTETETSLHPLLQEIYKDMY
The experiment in a line: Cellular PPARdelta assay (human GAL4 luciferase reporter, stably transfected HEK cell line). The class given is cell-based. How it is done: Determination of EC50 Values of PPAR Agonists in the Cellular PPARdelta Assay
(§1) The potency of substances which bind to human PPARdelta and activate it in an agonistic manner is analyzed using a stably transfected HEK cell line (HEK=human embryo kidney) which is referred to here as PPARdelta reporter cell line. In analogy to the assay described for PPARalpha, the PPARdelta reporter cell line also contains two genetic elements, a luciferase reporter element (pdeltaM-GAL4-Luc-Zeo) and a PPARdelta fusion protein (GR-GAL4-humanPPARdelta-LBD) which mediates expression of the luciferase reporter element depending on a PPARdelta ligand. The stably and constitutively expressed fusion protein GR-GAL4-humanPPARdelta-LBD binds in the cell nucleus of the PPARdelta reporter cell line via the GAL4 protein portion to the GAL4 DNA binding motifs 5′-upstream of the luciferase reporter element which is stably integrated in the genome of the cell line. There is only little expression of the luciferase reporter gene in the absence of a PPARdelta ligand if fatty acid-depleted fetal calf serum (cs-FCS) is used in the assay. PPARdelta ligands bind and activate the PPARdelta fusion protein and thereby stimulate expression of the luciferase reporter gene. The luciferase which is formed can be detected by means of chemiluminescence via an appropriate substrate.
Construction of the PPARdelta Reporter Cell Line
The production of the stable PPARdelta reporter cell line is based on a stable HEK-cell clone which was stably transfected with a luciferase reporter element. This step was already described above in the section “construction of the PPARalpha reporter cell line”. In a second step, the PPARdelta fusion protein (GR-GAL4-humanPPARdelta-LBD was stably introduced into this cell clone. For this purpose, the cDNA coding for the N-terminal 76 amino acids of the glucocorticoid receptor (Accession #P04150) was linked to the cDNA section coding for amino acids 1-147 of the yeast transcription factor GAL4 (Accession #P04386). The cDNA of the ligand-binding domain of the human PPARdelta receptor (amino acids S139-Y441; Accession #L07592) was cloned in at the 3′-end of this GR-GAL4 construct. The fusion construct prepared in this way (GR-GAL4-humanPPARdelta-LBD) was recloned into the plasmid pcDNA3 (Invitrogen) in order to enable constitutive expression by the cytomegalovirus promoter. This plasmid was linearized with a restriction endonuclease and stably transfected into the previously described cell clone containing the luciferase reporter element. The resulting PPARdelta reporter cell line which contains a luciferase reporter element and constitutively expresses the PPARdelta fusion protein (GR-GAL4-human PPARdelta-LBD) was isolated by selection with zeocin (0.5 mg/ml) and G418 (0.5 mg/ml).
Assay Procedure and Evaluation
The activity of PPARdelta agonists is determined in a 3-day assay in exact analogy to the procedure already described for the PPARalpha reporter cell line except that the PPARdelta reporter cell line and a specific PPARdelta agonist was used as a standard to control test efficacy.
(A reporter such as luciferase makes a cellular process visible.)

The target of a further experiment is T2, human PPARalpha (Homo sapiens, UniProt Q07869).
T2 construct: amino acids S167-Y468; expressed in transfected cells; plasmid pcDNA3
T2 sequence (Q07869 167-468): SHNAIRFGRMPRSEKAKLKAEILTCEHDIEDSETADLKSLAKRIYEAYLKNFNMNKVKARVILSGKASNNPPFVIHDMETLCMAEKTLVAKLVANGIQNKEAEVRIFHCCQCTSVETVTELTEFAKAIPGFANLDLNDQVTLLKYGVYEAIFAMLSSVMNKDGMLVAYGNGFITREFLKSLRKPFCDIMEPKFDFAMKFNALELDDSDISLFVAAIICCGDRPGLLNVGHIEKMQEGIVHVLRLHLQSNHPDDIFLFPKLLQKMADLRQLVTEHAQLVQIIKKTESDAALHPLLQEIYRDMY
The experiment in a line: Cellular PPARalpha assay (human GAL4 luciferase reporter, stably transfected HEK cell line). The experiment is classed as cell-based. As to the method:
Determination of EC50 Values of PPAR Agonists in the Cellular PPARalpha Assay
as §1, with “PPARalpha” for “PPARdelta”, “It” for “In analogy to the assay described for PPARalpha, the PPARdelta reporter cell line also”, “(GR-GAL4-humanPPARalpha-LBD)” for “(GR-GAL4-humanPPARdelta-LBD)”, “GR-GAL4-humanPPARalpha-LBD” for “GR-GAL4-humanPPARdelta-LBD”, “weak” for “little”, “stimulate the” for “stimulate”
Construction of the PPARalpha Reporter Cell Line
The PPARalpha reporter cell line was prepared in two stages. Firstly, the luciferase reporter element was constructed and stably transfected into HEK cells. For this purpose, five binding sites of the yeast transcription factor GAL4 (Accession #AF264724) were cloned in 5′-upstream of a 68 bp-long minimal MMTV promoter (Accession #V01175). The minimal MMTV promoter section contains a […] and a TATA element in order to enable efficient transcription by RNA polymerase II. The cloning and sequencing of the GAL4-MMTV construct took place in analogy to the description of Sambrook J. et al. (Molecular cloning, Cold Spring Harbor Laboratory Press, 1989). Then the complete Photinus pyralis gene (Accession #15077) was cloned in 3′-downstream of the GAL4-MMTV element. After sequencing, the luciferase reporter element consisting of five GAL4 binding sites, MMTV promoter and luciferase gene was recloned into a plasmid which confers zeocin resistance in order to obtain the plasmid pdeltaM-GAL4-Luc-Zeo. This vector was transfected into HEK cells in accordance with the statements in Ausubel, F. M. et al. (Current protocols in molecular biology, Vol. 1-3, John Wiley & Sons, Inc., 1995).
In a second step, the PPARalpha fusion protein (GR-GAL4-humanPPARalpha-LBD was introduced into the stable cell clone described. For this purpose, initially the cDNA coding for the N-terminal 76 amino acids of the glucocorticoid receptor (Accession #P04150) was linked to the cDNA section coding for amino acids 1-147 of the yeast transcription factor GAL4 (Accession #P04386). The cDNA of the ligand-binding domain of the human PPARalpha receptor (amino acids S167-Y468; Accession #S74349) was cloned in at the 3′-end of this GR-GAL4 construct. The fusion construct prepared in this way (GR-GAL4-humanPPARalpha-LBD) was recloned into the plasmid pcDNA3 (Invitrogen) in order to enable constitutive expression therein by the cytomegalovirus promoter. This plasmid was linearized with a restriction endonuclease and stably transfected into the previously described cell clone containing the luciferase reporter element. The finished PPARalpha reporter cell line which contains a luciferase reporter element and constitutively expresses the PPARalpha fusion protein (GR-GAL4-human PPARalpha-LBD) was isolated by selection with zeocin (0.5 mg/ml) and G418 (0.5 mg/ml).
The activity of PPARalpha agonists is determined in a 3-day assay, which is described below: […]

The conditions of experiment [1]: rhesus and cynomolgus monkeys; cited from earlier work.
The conditions of experiment [2]: two weeks clinical trials in healthy volunteers; cited from earlier work.
The conditions of experiment [3]: diabetic animal model; cited from earlier work.

Read-outs that look alike come from different tables or passages of the source. Where only a bound is given, the exact number is not on record here.

A word on the EC50: it is the midpoint of the concentration-response curve. A high value points to a need for much substance. Turning to `CCCCc1nc(-c2ccc(C(F)(F)F)cc2)sc1COc1ccc(-c2noc(=O)[nH]2)c(C)n1` [Example 100, 3-{6-[4-Butyl-2-(4-trifluoromethyl-phenyl)-thiazol-5-ylmethoxy]-2-methyl-pyridin-3-yl}-4H-[1,2,4]oxadiazol-5-one], the EC50 on human PPARdelta came out at 0.008 µM; on human PPARalpha, 0.315 µM. Regarding `COc1cc(OCc2sc(-c3ccc(C(F)(F)F)cc3)nc2CNC2CC2)ccc1-c1noc(=O)[nH]1` [Example 15, 3-{4-[4-Cyclopropylaminomethyl-2-(4-trifluoromethyl-phenyl)-thiazol-5-ylmethoxy]-2-methoxy-phenyl}-4H-[1,2,4]oxadiazol-5-one], the EC50 is 0.153 µM on human PPARdelta and greater than 10 µM at human PPARalpha. For `COCc1nc(/C=C/c2ccc(OC)cc2)oc1COc1ccc(-c2noc(=O)[nH]2)c(Cl)c1` [Example 55, 3-(2-Chloro-4-[4-methoxymethyl-2-[2-(4-methoxy-phenyl)-vinyl]-oxazol-5-ylmethoxy]-phenyl)-4H-[1,2,4]oxadiazol-5-one], in that order: 0.003 µM and 0.319 µM. For `CC(=O)OCc1nc(-c2ccc(C(F)(F)F)cc2)sc1COc1ccc(-c2noc(=O)[nH]2)c(F)c1` [Example 33, Acetic acid 5-[3-fluoro-4-(5-oxo-4,5-dihydro-[1,2,4]oxadiazol-3-yl)-phenoxymethyl]-2-(4-trifluoromethyl-phenyl)-thiazol-4-ylmethyl ester], in that order: 0.299 µM and 1.41 µM.

For `CCCc1c(OCCCSc2nnc(SCC(=O)O)s2)ccc(C(C)=O)c1O` [YM-16638], the plasma lipids result in experiment [1] is “significantly lowers”; in experiment [2], “acts in a similar manner”. `COc1cc(OCc2sc(-c3ccc(C(F)(F)F)cc3)nc2CCCN2CCSCC2)ccc1-c1noc(=O)[nH]1` [Example 103, 3-{2-Methoxy-4-[4-(3-thiomorpholin-4-yl-propyl)-2-(4-trifluoromethyl-phenyl)-thiazol-5-ylmethoxy]-phenyl}-4H-1,2,4-oxadiazol-5-one]: the EC50 was 0.008 µM at human PPARdelta and 0.483 µM at human PPARalpha.

On to `Cc1nc(COCc2ccccc2)oc1COc1ccc(-c2noc(=O)[nH]2)c(Cl)c1` [Example 56, 3-[4-(2-Benzyloxymethyl-4-methyl-oxazol-5-ylmethoxy)-2-chloro-phenyl]-4H-[1,2,4]oxadiazol-5-one], for which the EC50 stood at 0.358 µM on human PPARdelta and 2.19 µM on human PPARalpha. With `CCCc1c(OCCCOc2ccc(OCC(=O)O)cc2)ccc(C(C)=O)c1O` [Example L-165041], the plasma cholesterol entry in experiment [3] is “raises”.
